Data on one compound can be found in article PMC11546339, “Conformational Plasticity Enhances the Brain Penetration of a Metabolically Stable, Dual-Functional Opioid-Peptide CycloAnt” (International Journal of Molecular Sciences, 2024).

Series [1] in a line: LC-MS/MS search for metabolites in mouse plasma after i.p. administration. The class given is in vivo. The conditions noted are these: mouse plasma 15 min after 10 mg/kg i.p.; from m/z intensity. Here is the method: To verify if CycloAnt could be metabolized in vivo, we looked for the possible metabolites (Scheme S1) in a blood sample collected from mice 15 min after i.p. administration of CycloAnt at a dose of 10 mg/kg. The proteins in the mouse plasma were precipitated by ice-cold acetonitrile containing internal standard. Following centrifugation, the supernatant was collected, and analyzed by LC-MS/MS. A total ion current (TIC) scan was conducted for the mass-to-charge ratio (m/z) in the range of 300–1500 for all ions, followed by the targeted narrow range scans. The scans in the range of 650–690 and 325–346 are aimed at detecting the potential [M + 1]^+ and [M + 2]^2+ ions from the Phase I metabolites, the enzymatically cleaved peptides, and intact CycloAnt, respectively (Figure S1 and Figure 2); and the scans in the range of 843–852 and 422–428 are for detecting the potential [M + 1]^+ and [M + 2]^2+ ions from the Phase II glucuronidation, respectively (Figure S3). The [M + 1]^+ and [M + 2]^2+ ions were then extracted from the narrow range scans for the potential enzymatically cleaved products (Figure S1), the Phase I metabolites (Figure S2), and the Phase II UGT metabolites (Figure S3). The relative abundance of the tallest peak was assigned as 100. […]

Another series addresses T1, human KOR (Homo sapiens, UniProt P41145).
T1 construct: expressed in transfected cells
The series is described as follows: Opioid receptor radioligand binding assay ([3H]diprenorphine), KOR. Here is the method:
(§1) CycloAnt is a lariat peptide that acts in vivo as a bifunctional MOR agonist and DOR antagonist, which was confirmed in our previous study using opioid receptor individually knock-out (OP KO) mice. In the current study, the binding affinities of CycloAnt to the three opioid receptors are determined using cell-based radioligand opioid receptor binding assays. […] At the KOR, CycloAnt at 1 μM inhibits 6% and at 10 μM inhibits 26% of [^3H]diprenorphine binding.
(§2) Opioid receptor radioligand binding assay. Membranes of CHO cells stably expressing the rat MOR, mouse DOR, or human KOR were used in the experiments. [^3H]diprenorphine (PerkinElmer, Waltham, MA, at the time of experiment calculated to have specific activity 35 Ci/mmol) was used as the radioligand for the MOR, DOR, and KOR. Competition inhibition of [^3H]diprenorphine (0.3–0.4 nM) binding to the MOR or DOR was conducted in 50 mM Tris-HCl buffer (pH 7.4) with an adequate number of cell membranes for each receptor and […] of CycloAnt. […] Binding reactions were terminated by rapid filtration under vacuum over GF/B filters presoaked in 0.1% polyethyleneimine, and the bound radioactivity was counted by liquid scintillation counting. […] Binding data were analyzed using GraphPad Prism software (version 10.2.3) and IC50 values (the concentration necessary to inhibit 50 percent of radioligand binding) and Ki values were calculated. […]

A further series has as its target T2, mouse DOR (Mus musculus, UniProt P32300).
T2 construct: expressed in transfected cells
Kind of series: Opioid receptor radioligand binding assay ([3H]diprenorphine), DOR. The conditions noted are these: CHO cell membranes, read-out: binding affinity (Ki) at DOR. Here is the method: as §1, §2

A short description of series [2]: Metabolism by CYP450 in mouse liver microsomes (NADPH). In kind it is in vitro ADME. The conditions noted are these: 3.07 μM, 0.5 mg/mL microsomes, 1 mM NADPH, 37 °C, 120 min. Here is the method: The metabolic stability of CycloAnt was then evaluated in mouse liver microsomes. CycloAnt at a final concentration of 3.07 μM was mixed with 0.5 mg/mL liver microsomes in the presence of 1 mM of NADPH and incubated at 37 °C for 2 h. At 0, 5, 15, 30, 60, and 120 min, incubation mixtures were withdrawn and processed. The supernatant was analyzed by LC-MS/MS. The percentage of CycloAnt remaining at each time point was calculated (Figure 3a).
Metabolism by CYP450 in liver microsomes. CycloAnt dissolved in pH 7.2 PBS was diluted to 8 μM. Six hundred microliters of CycloAnt were incubated with 800 μL of 0.975 mg/mL mouse liver microsomes and 160 μL of 10 mM NADPH at 37 °C for 0, 5, 15, 30, 60, and 120 min. The final concentrations of CycloAnt, mouse liver microsomes, and NADPH in the incubation mixture were 3.07 μM, 0.5 mg/mL, and 1 mM, respectively. At the designated time points, 100 μL of the incubation mixture were withdrawn and mixed with 200 μL ice-cold acetonitrile containing internal standard (IS, Tyr-[D-Lys-Phe-Tyr-Gly]), followed by centrifugation at 10,000× g at 4 °C for 10 min. An aliquot of 250 μL of supernatant was collected and dried in vacuum. The dried sample was reconstituted in 100 μL of 20% acetonitrile and stored at −20 °C before analyzed by LC-MS/MS on the next day. The experiment was performed in duplicate.

Broadly, the inhibition is how much of the control response was suppressed. The low end stands for a response near the control, the high end for a response far below the control. By Ki is commonly meant a dissociation constant, usually derived from enzyme kinetics or from competition with a known ligand.

The structures appear in SMILES notation. Where a SMILES comes first, the peptide text is derived from it. Bridges are numbered along the chain shown (N, C = ends). [ ]: non-standard residue; d: D form. 2Abz = Nc1ccccc1C(=O)O; Dap = NC[C@H](N)C(=O)O

T1 sequence (P41145 whole entry): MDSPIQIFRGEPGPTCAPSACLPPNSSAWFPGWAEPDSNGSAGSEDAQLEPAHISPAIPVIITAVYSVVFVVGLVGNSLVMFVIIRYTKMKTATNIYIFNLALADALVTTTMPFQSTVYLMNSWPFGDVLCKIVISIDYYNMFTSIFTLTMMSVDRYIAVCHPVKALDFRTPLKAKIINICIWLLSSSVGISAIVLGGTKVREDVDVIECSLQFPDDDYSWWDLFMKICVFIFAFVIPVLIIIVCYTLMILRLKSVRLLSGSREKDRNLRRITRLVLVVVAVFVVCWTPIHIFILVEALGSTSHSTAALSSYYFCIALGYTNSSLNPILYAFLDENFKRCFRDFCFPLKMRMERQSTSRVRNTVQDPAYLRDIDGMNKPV
T2 sequence (P32300 whole entry): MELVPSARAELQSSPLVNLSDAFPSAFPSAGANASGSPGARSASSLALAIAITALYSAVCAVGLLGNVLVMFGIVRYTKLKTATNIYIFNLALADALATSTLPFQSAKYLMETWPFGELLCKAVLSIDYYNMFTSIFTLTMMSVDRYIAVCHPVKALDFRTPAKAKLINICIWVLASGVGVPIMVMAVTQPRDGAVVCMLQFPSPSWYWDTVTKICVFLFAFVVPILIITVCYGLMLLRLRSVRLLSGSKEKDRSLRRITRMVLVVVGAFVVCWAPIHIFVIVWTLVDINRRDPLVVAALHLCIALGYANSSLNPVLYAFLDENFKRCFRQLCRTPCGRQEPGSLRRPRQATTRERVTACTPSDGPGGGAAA

For the compound `C[C@@H](O)[C@@H]1NC(=O)[C@H](CNC(=O)c2ccccc2N)NC(=O)[C@H](NC(=O)[C@@H](N)Cc2ccc(O)cc2)CCCCNC(=O)CNC1=O` [CycloAnt] (H-Y[dK][Dap](2Abz)TG; lactam 2-C), the “concentration of any metabolites relative to CycloAnt in plasma (fold lower)” value in series [1] was 10^3- to-10^4 fold. This compound also showed an inhibition at 1 µM at human KOR (CycloAnt at 1 μM) of 6%. The compound further displayed an inhibition at 10 µM at human KOR (CycloAnt at 10 μM) of 26%. Besides, the Ki on mouse DOR turned out to be 7.85 ± 0.77 nM. Also, in series [2], the “stability in mouse liver microsomes with NADPH (CYP450)” value is reported as “no significant concentration change”.
